The values that follow come from patent US12178825B2, “Method and compositions for forming a copper-containing complex and uses thereof” (COLD SPRING HARBOR LABORATORY, priority 2017, dated 2024).

Assay [1] in a line: ESI-MS analysis of complex formation with copper salts. It is filed as binding. The note with it: for Percentage (binding percentage): DPM-1013:Cu = 1:8. As for the experimental part: Eight equivalents of M(NO3)2·xH2O or MSO4·xH2O (M=Cu, Zn) were reacted with 1 eq. of DPM-1001 (1 mM in H2O). The reaction solutions were stirred at RT, 40° C. and 80° C. for 2 h. Mass spectra were recorded on a Bruker Esquire 6000 HCT quadrupole ion trap instrument (Bruker Daltonik GmbH, Leipzig, Germany), equipped with an electrospray ionization (ESI) source. Generation of the molecular formula of the DPM-1001/Cu(II) species and the comparison between the theoretical (simulated) and the measured isotopic patterns was performed using the DataAnalysis 4.0 software (Bruker).
(§1) Eight equivalents of M(NO3)2·xH2O or MSO4·xH2O were reacted with 1 eq. of DPM-1001, DPM-1003 or analog 2 (1 mM in H2O). The reaction solutions were stirred at RT, 40° C. and 80° C. for 2 h. Each sample was diluted 5-fold in 50% methanol, 0.1% formic acid and loaded into a 500 μL syringe. A Thermo Vantage triple quadrupole mass spectrometer (Thermo Scientific), equipped with an HESI spray source was coupled to an Accela HPLC system (Thermo Scientific). Mobile phase A consisted of 0.1% formic acid and mobile phase B consisted of 0.1% formic acid in methanol. Isocratic flow was set to 50% B at 200 μL/min. 200 μl samples were injected into the LC flow line via syringe pump at 10 μL/min and electrosprayed into the Vantage triple quadrupole mass spectrometer. A spray voltage of 4.3 kV was used along with a capillary temperature of 350° C. Each full MS scan was 0.5 s and data were collected with a scan range of 200 m/z to 900 m/z over 1 min.
Binding of compounds of Formula I other than DPM-1001 was also confirmed. In an ESI-MS test, compound DPM-1013 as hydrochloride salt was dissolved in distilled water at a concentration of 2 mM freshly before testing. It was then mixed with an equal volume copper sulfate (16 mM) or copper chloride solution (16 mM) for 2 h, rendering a concentration of DPM-1013 at 1 mM and the copper salt 8 mM. The mixture was then further diluted 100-fold before injection into an ESI-MS, making a final concentration of DPM-1013 of 10 μM and Cu 80 μM in the test.
Binding percentage=peak intensity of all DPM-1013-Cu complex/(peak intensity of all DPM-1013-Cu complex+peak intensity of free DPM-1013).

Assay [2] in a line: ESI-MS analysis of complex formation with a series of other metal ions. The note with it: panel of metals. It is filed as binding. As for the experimental part: as §1
Another assay addresses T1, PTP1B1-405 (Homo sapiens, UniProt P18031).
T1 construct: PTP1B1-405 (the long form of PTP1B which contains the extended C-terminal segment); made in house; host or cells: Escherichia coli BL21 (DE3)-RIL
T1 sequence (P18031 1-405): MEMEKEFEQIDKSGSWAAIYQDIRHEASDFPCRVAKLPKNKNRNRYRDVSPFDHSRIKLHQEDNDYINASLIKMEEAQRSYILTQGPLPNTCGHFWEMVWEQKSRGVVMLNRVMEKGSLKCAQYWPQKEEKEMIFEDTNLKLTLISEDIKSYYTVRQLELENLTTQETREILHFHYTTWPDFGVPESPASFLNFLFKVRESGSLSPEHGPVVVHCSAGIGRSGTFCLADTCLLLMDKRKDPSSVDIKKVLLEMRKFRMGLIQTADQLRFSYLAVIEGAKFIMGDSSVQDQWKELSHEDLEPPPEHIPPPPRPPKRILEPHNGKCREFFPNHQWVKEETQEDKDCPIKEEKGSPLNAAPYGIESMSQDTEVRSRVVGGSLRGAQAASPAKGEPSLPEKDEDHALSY
Briefly: PTP1B phosphatase activity assay, DiFMUP substrate, long form. It is filed as biochemical. As for the experimental part:
(§2) All common reagents were obtained from Thermo Fisher Scientific (Waltham, MA) or Sigma-Aldrich (St. Louis, MO). Difluoro-4-methylumbelliferyl phosphate (DiFMUP) was obtained from Invitrogen (cat #D22065). Solid black 384-well plates (cat #3573) for phosphatase assays were from Corning Incorporated (Corning, NY).
(§3) Wild-type PTP1B containing a His-tag was expressed in Escherichia coli BL21 (DE3)-RIL using LB. Cells were resuspended in lysis buffer (50 mM Hepes pH 7.2, 150 mM NaCl, 10 mM imidazole, 2 mM TCEP) with cOmplete EDTA-free Protease Inhibitor Cocktail (Roche), and then lysed using a sonicator at 4° C. Lysates were clarified by centrifugation. Initial protein purification was by gravity flow, nickel column chromatography. Protein was used immediately or stored at −80° C. in 50 mM HEPES pH 7.4, 100 mM NaCl, 2 mM dithiothreitol and 25% glycerol.

The target of the next assay is T2, PTP1B1-321 (Homo sapiens, UniProt P18031).
T2 construct: C-terminally truncated PTP1B (1-321); made in house; host or cells: Escherichia coli BL21 (DE3)-RIL
T2 sequence (P18031 1-321): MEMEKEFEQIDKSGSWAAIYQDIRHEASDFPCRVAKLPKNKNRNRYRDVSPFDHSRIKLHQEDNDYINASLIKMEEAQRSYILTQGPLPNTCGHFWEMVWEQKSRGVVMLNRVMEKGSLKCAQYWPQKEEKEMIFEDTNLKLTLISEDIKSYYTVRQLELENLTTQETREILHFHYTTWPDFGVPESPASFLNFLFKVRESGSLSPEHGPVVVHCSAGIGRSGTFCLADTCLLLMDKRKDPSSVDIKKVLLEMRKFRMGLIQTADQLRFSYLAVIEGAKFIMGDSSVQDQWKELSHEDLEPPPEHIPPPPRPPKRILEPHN
In words: PTP1B phosphatase activity assay, short form. It is filed as biochemical. The note with it: enzyme-inhibitor complex diluted, activity recovery monitored. As for the experimental part:
as §2, §3

For another assay, the target named is PTP1B-L192A/S372P (Homo sapiens, UniProt P18031, L192A/S372P). Briefly: Phosphatase assay with MSI-1436-resistant mutant. It is filed as biochemical.
Sequence of PTP1B-L192A/S372P (P18031 whole entry L192A/S372P): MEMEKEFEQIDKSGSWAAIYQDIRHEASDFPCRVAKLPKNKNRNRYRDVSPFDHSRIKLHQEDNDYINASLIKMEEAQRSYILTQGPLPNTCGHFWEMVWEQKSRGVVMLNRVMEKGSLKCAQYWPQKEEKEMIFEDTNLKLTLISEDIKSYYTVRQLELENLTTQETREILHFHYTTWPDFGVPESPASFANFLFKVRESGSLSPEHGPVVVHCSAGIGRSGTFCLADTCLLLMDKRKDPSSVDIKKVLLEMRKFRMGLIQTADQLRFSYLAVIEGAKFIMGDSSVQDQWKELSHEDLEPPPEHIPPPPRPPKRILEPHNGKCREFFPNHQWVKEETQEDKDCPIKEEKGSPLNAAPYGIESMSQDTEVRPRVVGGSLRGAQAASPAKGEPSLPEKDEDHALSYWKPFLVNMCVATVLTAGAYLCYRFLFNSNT
Source text: as §2

The next assay relates to TX mice. Briefly: Tissue and fecal copper levels (ICP-MS, rhodanine staining). It is filed as in vivo, mouse. As for the experimental part:
C3He-Atp7b^tx-j were obtained from the Jackson laboratory. All animal experiments were performed according to protocols approved by the Institutional Animal Use and Care Committee of Cold Spring Harbor laboratory. Mice were injected intraperitoneally (i.p.) with vehicle, or administered DPM-1001 intraperitoneally or orally at 5 mg/kg once every third day, for over a year. At the end of the study animals were euthanized and tissue samples were removed for biochemical studies.
Tissue samples from wild-type or TX mice treated with saline, DPM-1001 or tetrathiomolybdate was washed three times with PBS containing 1 mM EDTA (to remove nonspecifically bound copper). Then, 215 μl of concentrated nitric acid (BDH Aristar Ultra) was added to each sample and incubated overnight. Samples were boiled at 95° C. for 1 h. and approximately 150 μl of each sample was further diluted in 2 ml 2% nitric acid (made freshly from concentrated nitric acid and Milli-Q water) Samples were analyzed on a Thermo Fisher iCAP Qc ICP mass spectrometer in kinetic energy discrimination (KED) mode against a calibration curve of known copper and phosphorus concentrations, with Ga (20 μg/l, Inorganic Ventures) as an internal standard, Each experiment was carried out twice and each condition was repeated in at least triplicate.
Liver tissues from wild-type and TX mice from untreated and DPM-1001-treated mice were sectioned and stained with H&E or rhodanine. Whole-slide, digitized images of H&E-stained tissue were captured using the Aperio ScanScope XT automated scanning system (Vista, CA). Image J software was used to quantitate rhodanine staining.

In the next assay the test system is MDA-MB-231 cells. In words: Cell survival. It is filed as cell-based. As for the experimental part: (§4) The MTT assay was used to evaluate cell survival in the absence and presence of different compounds. The thiazolyl blue tetrazolium bromide (MTT) was dissolved in phosphate buffered saline (PBS) at a concentration of 5 mg/ml, filtered, and stored at 4° C. About 10,000 cells were seeded into a 96-well plate and cultured in growth medium containing serum. After 24 hours, cells were treated with the indicated concentrations of DPM-1001 or DPM-1003 (0-100 uM) for 2 hrs. Following which 20 μl MTT was added into each well. An ELISA plate reader (Biotek, Winooski, Vermont, USA) was used to measure the optical density at 490 nm.
MDA-MB-231 cells (1×10^5) were seeded in 6 cm plates in growth medium. The cells were untreated or treated with DPM-1001 (0.5, 1, 2 and 5 μM), DPM-1003 (0.5, 1, 2 and 5 μM) or TTM (25, 50, 100 μM) for 1 h. Following which, media was gently aspirated and cells were washed with PBS. To each plate 0.5 ml of crystal violet (0.5%) was added and incubated in dark for 10 minutes at room temperature. The staining solution was removed and plates were washed with PBS (three times). The cells stained with the dye were imaged.

The next assay has as its system HCC70 cells. In words: Cell survival. It is filed as cell-based. As for the experimental part: as §4
For another assay, the system named is MCF-7. In words: Cell survival. It is filed as cell-based. As for the experimental part:
as §4

A further assay concerns MDA-MB-468 cells. In words: Cell survival. It is filed as cell-based. As for the experimental part: as §4
For a further assay, the system named is SUM149 cells. In words: Cell survival. It is filed as cell-based. As for the experimental part: as §4
The next assay deals with SUM159. Briefly: Cell survival. It is filed as cell-based. As for the experimental part:
as §4

Assay [3] concerns AZD6244-insensitive cells. In words: Immunoblot of phospho-MEK and phospho-Erk. It is filed as cell-based. The note with it: AZD6244-insensitive (resistant) cells. The source says: (§5) Equal quantities of lysates were isolated from indicated cell lines and then resolved by SDS-PAGE and immunoblotted with one of the following primary antibodies: mouse anti-MEK1/2, rabbit anti-p-PAK1, rabbit anti-PAK1, rabbit anti-ERK1/2, rabbit anti-phospho(Ser 217/221)-MEK1/2, rabbit anti-phospho(Thr 202/Tyr 204)-ERK1/2, rabbit anti-phospho (Ser 338)-c-RAF, rabbit anti-RAF, rabbit anti-phospho (Ser 112)-BAD and rabbit anti-BAD (Cell Signaling Technology), mouse anti-β-actin (Sigma), followed by detection with one of the following horseradish peroxidase-conjugated secondary antibodies: goat anti-rabbit IgG, goat anti-mouse IgG (Invitrogen), mouse anti-rabbit light-chain-specific IgG (Jackson ImmunoResearch Laboratories) using enhanced chemiluminescence (ECL; GE Healthcare) or SuperSignal West Femto Chemiluminescent substrate (Pierce) detection reagents.

The next assay deals with AZD6244-sensitive cells. Briefly: Immunoblot of phospho-MEK and phospho-Erk. It is filed as cell-based. The note with it: 1-2 μM AZD6244.
Source text: as §5
A general note: A western blot detects proteins with antibodies after separation by electrophoresis.

SMILES strings stand for the structures. “Also recorded” adds a separate entry of the source. A value given as a limit tells only on which side of the number the result lay.

As to `COC(=O)CC[C@@H](C)[C@H]1CC[C@H]2[C@@H]3[C@H](O)C[C@@H]4C[C@@H](NCCCCNCc5ccccn5)CC[C@]4(C)[C@H]3CC[C@]12C` [DPM-1013], the “complex formation with copper” value in assay [1] was “formed complexes with free Cu, CuSO4; also recorded: formed complexes with free Cu, CuCl2”. The “Percentage (binding percentage)” value in assay [1] (CuCl2) was found to be 74.29%; in [1] (CuSO4), 82.23%.
With `c1ccc(CNCCCCNCc2ccccn2)nc1` [Analog 2, N^1,N^4-bis(pyridin-2-ylmethyl)butane-1,4-diamine], the “complex formation with copper” value in assay [1] is recorded as “Cu(II)-bound form”. Besides, in assay [2], the “complex formation with other metals” value was “bound to all the metals tested”.
In the case of `CC(C)[C@@H](CC[C@@H](C)[C@H]1CC[C@H]2[C@@H]3[C@H](O)C[C@H]4C[C@@H](NCCCNCCCCNCCCN)CC[C@]4(C)[C@H]3CC[C@]12C)OS(=O)(=O)O` [MSI-1436, 3-N-1(spermine)-7,24-dihydroxy-5-cholestane 24-sulfate, reference compound], on PTP1B1-405 (enzyme-inhibitor complex diluted, activity recovery monitored), the “reversibility of inhibition of PTP1B1-405” value is recorded as “reversible inhibitor”. In addition, the “time until PTP1B activity recovers” value on PTP1B1-405 (sample diluted 100-fold) was not above 60 min. Besides, the “reversibility of inhibition of PTP1B1-321” value at PTP1B1-321 is “reversible inhibitor”. The “sensitivity of PTP1B-L192A/S372P to inhibitor” value on PTP1B-L192A/S372P was “insensitive”. For the same compound, the “complex formation with copper” value in [1] is given as “does not form a complex with copper”.
Regarding `[SH-].[SH-].[S]=[Mo]=[S]` [tetrathiomolybdate, reference compound], the “copper levels in feces” value in the assay with TX mice (TX mice) was “only a small increase”. Further, the “copper levels in liver and brain” value in the assay on TX mice (TX mice, ICP-MS) is “prevented accumulation of copper in liver and brain”. Besides, in the assay with TX mice (wild-type and TX mice, ICP-MS), the “copper levels in kidney” value was “caused accumulation of copper in the kidney; also recorded: dramatically elevated copper levels in the kidney”.
As to `Cn1cnc2c(F)c(Nc3ccc(Br)cc3Cl)c(C(=O)NOCCO)cc21` [AZD6244, 6-(4-bromo-2-chloroanilino)-7-fluoro-N-(2-hydroxyethoxy)-3-methylbenzimidazole-5-carboxamide], the “survival of MDA-MB-231 cells” value in the assay on MDA-MB-231 cells is given as “inhibited cell survival”. The “survival of HCC70 cells” value in the assay on HCC70 cells is listed as “without effect on survival”. The “survival of MCF-7 cells” value with MCF-7 is “inhibited cell survival”. For the same compound, the “survival of MDA-MB-468 cells” value with MDA-MB-468 cells is “without effect on survival”. Further, the “survival of SUM149 cells” value in the assay on SUM149 cells is listed as “without effect on survival”. Also, the “survival of SUM159 cells” value in the assay on SUM159 is “inhibited cell survival”. The “phospho-MEK and phospho-Erk” value in assay [3] is “without effect”; in the assay on AZD6244-sensitive cells, “reduced phospho-MEK and phospho-Erk”.
